The values that follow come from patent US7915267B2, “Heterocyclic amide compound and use thereof” (Takeda Pharmaceutical Company Limited, priority 2005, dated 2011).

The experiment deals with T1, MMP-13 (Homo sapiens, UniProt P45452).
T1 construct: purchased GenzymeTechne
Put plainly: MMP-13 inhibitory activity (fluorogenic substrate Cy3-PLGLK(Cy5Q)AR-NH2 enzyme assay). Type of experiment: biochemical. Particulars: compound 1 μM; 37° C., 40 min; APMA-activated MMP-13 precursor; read-out: MMP-13 inhibitory rate (%) at 1 μM. Here is the method:
To 10 μg of MMP-13 precursor (GenzymeTechne) was added 1 ml of assay buffer (50 mM Tris-HCl (pH 7.5), 10 mM CaCl2, 150 mM NaCl, 0.05% Brij-35), and 4-aminophenylmercuric acid (Sigma) was added to the final concentration of 1 mM. The MMP-13 precursor was activated by incubating at 37° C. for 2 hr.
In a 96 well black plate (Corning), to 6.3 ng/ml of MMP-13 solution (49 μl) diluted with assay buffer was added the test compound (1 μl) diluted with dimethyl sulfoxide (DMSO) and 620 nM Cy3-PLGLK(Cy5Q)AR-NH2 (50 μl, synthesized by Amersham Biosciences) in assay buffer was added to start the enzyme reaction. After incubation at 37° C. for 40 min, 500 mM EDTA solution (6 μl) was added to stop the reaction. For measurement, Farcyte (Amersham Biosciences) was used to measure at excitation wavelength 535 nm and measurement wavelength 595 nm.
T: value of well with addition of DMSO instead of test compound
C: value of well with addition of DMSO instead of test compound and addition of EDTA solution before addition of substrate solution
X: value of well with addition of test compound
Regarding `N#Cc1ccc2nc(C(=O)NCc3cccc(NC(=O)c4nc[nH]n4)c3)[nH]c(=O)c2c1` [Example 38, 6-cyano-4-oxo-N-({3-[(1H-1,2,4-triazol-3-ylcarbonyl)amino]phenyl}methyl)-3,4-dihydroquinazoline-2-carboxamide], the inhibition at 1 µM was found to be 85%.
For `Cc1csc2nc(C(=O)NCc3cccc(NC(=O)c4nc[nH]n4)c3)[nH]c(=O)c12` [Example 39, 5-methyl-4-oxo-N-({3-[(1H-1,2,4-triazol-3-ylcarbonyl)amino]phenyl}methyl)-3,4-dihydrothieno[2,3-d]pyrimidine-2-carboxamide] the value was 81%; for `O=C(CCCOc1cccc(CNC(=O)c2nc3ccccc3c(=O)[nH]2)c1)Nc1nc[nH]n1` [Example 40, 4-oxo-N-[(3-{[4-oxo-4-(1H-1,2,4-triazol-3-ylamino)butyl]oxy}phenyl)methyl]-3,4-dihydroquinazoline-2-carboxamide], 94%.
With `CCOC(=O)c1ccc(COCc2csc3nc(C(=O)NCc4ccnc(OCCCc5nc[nH]n5)c4)[nH]c(=O)c23)cc1` [Example 41, ethyl 4-[({[4-oxo-2-({[(2-{[3-(1H-1,2,4-triazol-3-yl)propyl]oxy}pyridin-4-yl)methyl]amino}carbonyl)-3,4-dihydrothieno[2,3-d]pyrimidin-5-yl]methyl}oxy)methyl]benzoate], the inhibition at 1 µM amounted to 96%.
The same measure for `O=C(O)c1ccc(COCc2csc3nc(C(=O)NCc4ccnc(OCCCc5nc[nH]n5)c4)[nH]c(=O)c23)cc1` [Example 42, 4-[({[4-oxo-2-({[(2-{[3-(1H-1,2,4-triazol-3-yl)propyl]oxy}pyridin-4-yl)methyl]amino}carbonyl)-3,4-dihydrothieno[2,3-d]pyrimidin-5-yl]-methyl}oxy)methyl]benzoic acid]: 98%.
In the case of `O=C(NCc1cccc(OCCOc2nc[nH]n2)c1)c1nc2ccc(F)c(F)c2c(=O)[nH]1` [Example 44, 5,6-difluoro-4-oxo-N-[(3-{[2-(1H-1,2,4-triazol-3-yloxy)ethyl]oxy}phenyl)methyl]-3,4-dihydroquinazoline-2-carboxamide], the inhibition at 1 µM amounted to 98%.
For `O=C(NCc1cccc(OCCOc2nc[nH]n2)c1)c1nc2ccc(F)c(NCc3cccc(OCCOc4nc[nH]n4)c3)c2c(=O)[nH]1` [Example 45, 6-fluoro-4-oxo-N-[(3-{[2-(1H-1,2,4-triazol-3-yloxy)ethyl]oxy}phenyl)methyl]-5-{[(3-{[2-(1H-1,2,4-triazol-3-yloxy)ethyl]oxy}phenyl)methyl]amino}-3,4-dihydroquinazoline-2-carboxamide] the value was 97%.
For `O=C(O)c1ccc(CCOc2c(F)ccc3nc(C(=O)NCc4cccc(OCCOc5nc[nH]n5)c4)[nH]c(=O)c23)cc1` [Example 46, 4-(2-{[6-fluoro-4-oxo-2-({[(3-{[2-(1H-1,2,4-triazol-3-yloxy)ethyl]oxy}phenyl)methyl]amino}carbonyl)-3,4-dihydroquinazolin-5-yl]oxy}ethyl)benzoic acid] the value was 100%; for `COC(=O)c1ccc(OCCn2ncc3nc(C(=O)NCc4cccc(OCCOc5nc[nH]n5)c4)[nH]c(=O)c32)cc1` [Example 47, methyl 4-({2-[7-oxo-5-({[(3-{[2-(1H-1,2,4-triazol-3-yloxy)ethyl]oxy}phenyl)methyl]amino)carbonyl}-6,7-dihydro-1H-pyrazolo[4,3-d]pyrimidin-1-yl]ethyl}oxy)benzoate], 98%.
As for `O=C(O)c1ccc(OCCn2ncc3nc(C(=O)NCc4cccc(OCCOc5nc[nH]n5)c4)[nH]c(=O)c32)cc1` [Example 48, 4-({2-[7-oxo-5-({[(3-{[2-(1H-1,2,4-triazol-3-yloxy)ethyl]oxy}phenyl)methyl]amino}carbonyl)-6,7-dihydro-1H-pyrazolo[4,3-d]pyrimidin-1-yl]ethyl}oxy)benzoic acid], the inhibition at 1 µM came to 99%.
